Data reported in publication PMC6325233, “A Novel Actin Binding Drug with In Vivo Efficacy” (Antimicrobial Agents and Chemotherapy, 2018).
Where two headings read alike, the source gives them in different places.

Tests used:
Assay type in all cases: cell-based
[1] = tested on: C. albicans (ATCC 66027); assay: DNA (nuclear) segregation assay, DAPI; details: for percentage of cells in category, column 2: untreated 10.3 ± 3.8; for percentage of cells in category, column 4: untreated 1.0 ± 0.4; for percentage of cells in category, column 3: untreated 26.6 ± 5.6
Experimental: (§1) The hyphal induction assay was performed as previously reported with minor modifications ([58]). Candida albicans strain ATCC 66027 was grown in yeast extract-peptone-dextrose (YPD) medium at 30°C for 48 h to reach saturation with an OD600 of 17 to 19. Cells were diluted into fresh Spider medium (1% nutrient broth, 1% mannitol, 0.2% K2HPO4) to obtain an OD600 of 0.05 (∼0.5 × 10^6 to 1 × 10^6 cells/ml) and incubated at 37°C with shaking to induce hyphal formation. Immediately prior to the 37°C incubation, occidiofungin (1 µg/ml; 0.5× MIC) or an equal volume of DMSO was added to the cultures. Aliquots were removed at 0-, 1-, 2-, 4-, and 6-h time points and fixed in 3.7% formaldehyde for later analysis of cell morphology by light microscopy. More than 200 cells were examined for each time point, and cells were scored as having either a yeast or filamentous form, with cells showing any outgrowth considered filamentous. DNA segregation assays were performed using a mid-log culture of S. cerevisiae (BY4743, diploid) and C. albicans (ATCC 66027). The cultures were diluted in fresh YPD medium to obtain OD600s of 0.095 (∼1 × 10^6 to 1.5 × 10^6 cells/ml) and 0.05 (0.5 × 10^6 to 0.8 × 10^6 cells/ml), respectively. A blank vehicle control (DMSO) or occidiofungin (1 µg/ml; 0.5× MIC) was added, and the cultures were placed at 30°C with shaking. Samples were removed at 0.5, 1, and 2 h, and the cells fixed by adding formaldehyde (3.7%). The cells were washed in phosphate-buffered saline (PBS) and permeabilized by adding an equivalent volume of PBS containing 0.2% Triton X-100 for 30 min at room temperature. The cells were washed thrice in PBS, added to concanavalin A-treated glass slides, and overlaid with Vectashield plus DAPI (4′,6-diamidino-2-phenylindole). Images were viewed using a Nikon 50i fluorescence microscope with a 100× oil immersion objective and DAPI filter. Cells were scored on the basis of bud morphology and DNA location. One-way analyses of variance (ANOVAs) with post hoc Tukey’s honestly significant difference (HSD) testing were used to determine statistically significant differences in the distributions between treated and untreated cells. In addition, FM-464 uptake assays were used to observe endocytosis. Three 1-ml aliquots of S. pombe (OD600 of 0.6 to 0.8) were treated with 1 μl DMSO, 0.5 μg/ml (0.5× MIC), or 1 μg/ml (1× MIC) of native occidiofungin for 30 min at 30°C. The cells were washed thrice with PBS and resuspended in YPD medium containing […] FM-464 (Thermo Fisher Scientific). The cells were incubated for 60 min at 30°C, followed by two washes in PBS before visualizing on an Olympus FV1000 confocal microscope with a 40×/0.9 dry objective. Lastly, actin polymerization and depolymerization assays were performed using the Actin polymerization biochem kit (catalog number BK003; Cytoskeleton, Inc.) according to the manufacturer’s instructions.

[2] = tested on: S. cerevisiae (BY4743, diploid); assay: DNA (nuclear) segregation assay, DAPI; details: for percentage of cells in category, column 2 / percentage of cells in category, column 4 / percentage of cells in category, column 3 / percentage of cells in category, column 1: 0.5X MIC, 30 °C, two experiments; for percentage of cells in category, column 2: untreated 3.9 ± 1.2; for percentage of cells in category, column 4: untreated 1.4 ± 0.5; for percentage of cells in category, column 3: untreated 13.7 ± 2.5; for percentage of cells in category, column 1: untreated 80.4 ± 2.6
Experimental: as §1

[3] = tested on: Candida krusei 28415; assay: MIC susceptibility testing (fluconazole-resistant strain); details: CLSI M27-A3
Experimental: (§2) Occidiofungin was purified from a liquid culture of Burkholderia contaminans MS14 as previously described ([21]). MIC susceptibility testing was performed according to the CLSI M27-A3 and M38-A2 standards for the susceptibility testing of yeasts and filamentous fungi, respectively. S. cerevisiae deletion mutants were obtained from the commercially available BY4741 deletion library (Thermo Scientific).

[4] = tested on: Saccharomyces cerevisiae BY4741; assay: MIC susceptibility testing
Experimental: as §2
The addition of an alkyne reactive group to the primary amine on occidiofungin was performed initially at the Texas A&M Natural Products LINCHPIN Laboratory at Texas A&M University and subsequently at the CPRIT Synthesis and Drug-Lead Discovery Laboratory at Baylor University (see Fig. S1 in the supplemental material). A solution of triethylamine and acetonitrile was prepared by dissolving 10 µl of triethylamine in 11.7 ml of acetonitrile. A stock solution of acetonitrile and the reagents was prepared by adding 2,5-dioxopyrrolidin-1-yl hex-5-ynoate (1.40 mg, 6.69 µmole, 8.2 equivalent) to 1.08 ml of the triethylamine and acetonitrile solution prepared above. Occidiofungin (1 mg, 0.82 µmole, 1 equiv.) was added to the stock solution of acetonitrile and reagents (400 µl) containing triethylamine (0.34 µl, 2.46 µmole, 3 equiv.) and 2,5-dioxopyrrolidin-1-yl hex-5-ynoate ([…], 2.46 µmole, 3 eq). […]

[5] = 0.5X MIC, 0.5 h, 30 °C, two experiments
[6] = 0.5X MIC, 1 h, 30 °C, two experiments, * p < 0.05
[7] = subinhibitory concentration, within 30 min

occidiofungin
percentage of cells in category, column 1 [1]: 58.1 ± 6.6%
percentage of cells in category, column 2 ([1]; 0.5X MIC, 0.5 h, 30 °C, two experiments, * p < 0.05): 1 ± 0.7%
percentage of cells in category, column 4 [1, 5]: 5.6 ± 0.4%
percentage of cells in category, column 3 [1, 5]: 35.3 ± 6.8%
percentage of cells in category, column 4 [1, 6]: 8.1 ± 2.8%
percentage of cells in category, column 2 [1, 6]: 0.9 ± 0.1%
percentage of cells in category, column 3 ([1]; 0.5X MIC, 1 h, 30 °C, two experiments): 28.1 ± 1.3%
percentage of cells in category, column 1 ([1]; 0.5X MIC, 1 h, 30 °C, two experiments, untreated 62.1 ± 8.8): 62.9 ± 4.2%
percentage of cells in category, column 2 ([1]; 0.5X MIC, 2 h, 30 °C, two experiments, * p < 0.05): 0.4 ± 0.6%
percentage of cells in category, column 4 ([1]; 0.5X MIC, 2 h, 30 °C, two experiments, ** p < 0.01): 11.4 ± 3.8%
percentage of cells in category, column 3 ([1]; 0.5X MIC, 2 h, 30 °C, two experiments): 26.3 ±12.1%
percentage of cells in category, column 1 ([1]; 0.5X MIC, 2 h, 30 °C, two experiments, untreated 62.1 ± 8.8): 61.9 ± 7.7%
binucleated cells [1, 7]: more binucleated cells
percentage of cells in category (bud morphology and DNA localization), column 1 [2]: 66.9 ± 6.8%
percentage of cells in category, column 2 ([2]; 0.5 h, * p < 0.05): 0.2 ± 0.3%
percentage of cells in category, column 4 ([2]; 0.5 h, ** p < 0.01): 12.3 ± 0.6%
percentage of cells in category, column 3 ([2]; 0.5 h): 20.5 ± 6.5%
percentage of cells in category, column 2 ([2]; 1 h, * p < 0.05): 0.4 ± 0.1%
percentage of cells in category, column 3 ([2]; 1 h, * p < 0.05): 25.4 ± 4.7%
percentage of cells in category, column 4 ([2]; 1 h, ** p < 0.01): 15.1 ± 2.9%
percentage of cells in category, column 1 ([2]; 1 h, ** p < 0.01): 59.1 ± 7.7%
percentage of cells in category, column 2 ([2]; 2 h, * p < 0.05): 0.6 ± 0.8%
percentage of cells in category, column 1 ([2]; 2 h, * p < 0.05): 63.5 ± 2.2%
percentage of cells in category, column 4 ([2]; 2 h, ** p < 0.01): 13.3 ± 0.7%
percentage of cells in category, column 3 ([2]; 2 h): 22.7 ± 2.3%
binucleated cells [2, 7]: more binucleated cells
MIC, 50% inhibition ([3]; 24 hours): 4 µg/mL
MIC, 100% inhibition ([3]; 24 hours): 8 µg/mL
MIC, 50% inhibition ([3]; 48 hours): 4 µg/mL
MIC, 100% inhibition ([3]; 48 hours): 8 µg/mL
MIC ([4]; CLSI M27-A3, alkyne-OF vs native comparison (S2 Table)): 0.125 µg/mL
MIC ([4]; parent strain of deletion mutants (S4 Table)): 0.25 µg/mL
